Results from ChEMBL document CHEMBL4402548, “Discovery of novel tRNA-amino acid dual-site inhibitors against threonyl-tRNA synthetase by fragment-based target hopping” (Eur J Med Chem, 2020).
pIC50, pKd: −log10 of the molar value. ≈ marks a conversion by molar mass, not a printed value.

What was measured:
Salmonella enterica [1] = assay: Binding affinity to Salmonella enterica Threonyl-tRNA synthetase assessed as change in melting temperature at 0.5 mM incubated for 10 mins by SYPRO orange dye-based thermal shift assay
Salmonella enterica [2] = assay: Inhibition of Salmonella enterica Threonyl-tRNA synthetase assessed as reduction in aminoacylation activity at 100 uM using L-threonine as substrate incubated for 3 hrs by Kinase-glo luminescence assay relative to control
[3] = Inhibition of Salmonella enterica Threonyl-tRNA synthetase assessed as reduction in aminoacylation activity using L-threonine as substrate in presence of incubated for 3 hrs by Kinase-glo luminescence assay
Escherichia coli = assay: Antibacterial activity against Escherichia coli ATCC 25922 by visual method; assay type: functional
Salmonella enterica [4] = assay: Antibacterial activity against Salmonella enterica 87 by visual method; assay type: functional
Pseudomonas aeruginosa = assay: Antibacterial activity against Pseudomonas aeruginosa ATCC 27853 by visual method; assay type: functional
Enterococcus faecalis = assay: Antibacterial activity against Enterococcus faecalis ATCC 29212 by visual method; assay type: functional
Staphylococcus aureus [5] = assay: Antibacterial activity against Staphylococcus aureus ATCC 29213 by visual method; assay type: functional
Staphylococcus aureus [6] = assay: Antibacterial activity against methicillin-resistant Staphylococcus aureus R3708 by visual method; assay type: functional
[7] = Binding affinity to Salmonella enterica Threonyl-tRNA synthetase at 200 uM by isothermal titration calorimetry

| SMILES | ΔTm (Salmonella enterica [1]) | inhibition (Salmonella enterica [2]) | pIC50 [3] | other results |
| --- | --- | --- | --- | --- |
| C[C@@H](O)[C@H](N)C(=O)OCCCn1cnc2cc(Br)c(Cl)cc2c1=O | 7.5 °C | 0% |  |  |
| C[C@@H](O)[C@H](N)C(=O)OCCCCCn1cnc2cc(Br)c(Cl)cc2c1=O | 9.8 °C | 30% |  |  |
| C[C@@H](O)[C@H](N)C(=O)NC/C=C/Cn1cnc2ccccc2c1=O | 9.2 °C | 15% |  |  |
| C[C@@H](O)[C@H](N)C(=O)N1CCC(C(=O)Cn2cnc3cc(Br)c(Cl)cc3c2=O)CC1 | 0 °C | 0% |  |  |
| C[C@@H](O)[C@H](N)C(=O)NC/C=C/Cn1cnc2cc(Br)c(Br)cc2c1=O | 20.3 °C | 100% | 5.62 |  |
| C[C@@H](O)[C@H](N)C(=O)N1CCC(Cn2cnc3cc(Br)c(Cl)cc3c2=O)CC1 | 12.4 °C | 23% |  |  |
| C[C@@H](O)[C@H](N)C(=O)NC/C=C/Cn1cnc2cc(C(F)(F)F)ccc2c1=O | 11.9 °C | 21% |  |  |
| CC1(C)S[C@@H]2[C@H](NC(=O)[C@H](N)c3ccccc3)C(=O)N2[C@H]1C(=O)O [AMPICILLIN] |  |  |  | MIC (Escherichia coli): 1 mg/L (≈ 2.86 µM); MIC (Salmonella enterica [4]): 1 mg/L (≈ 2.86 µM); MIC (Pseudomonas aeruginosa): 1 mg/L (≈ 2.86 µM) |
| C[C@@H](O)[C@H](N)C(=O)NC/C=C/Cn1cnc2cnc(F)cc2c1=O | 12 °C | 36% |  |  |
| CN[C@H](CC(C)C)C(=O)N[C@H]1C(=O)N[C@@H](CC(N)=O)C(=O)N[C@H]2C(=O)N[C@H]3C(=O)N[C@H](C(=O)N[C@H](C(=O)O)c4cc(O)cc(O)c4-c4cc3ccc4O)[C@H](O)c3ccc(c(Cl)c3)Oc3cc2cc(c3O[C@@H]2O[C@H](CO)[C@@H](O)[C@H](O)[C@H]2O[C@H]2C[C@](C)(N)[C@H](O)[C@H](C)O2)Oc2ccc(cc2Cl)[C@H]1O [VANCOMYCIN] |  |  |  | MIC (Enterococcus faecalis): 2 mg/L (≈ 1.38 µM) |
| C[C@@H](O)[C@H](N)C(=O)OCCCCCCn1cnc2cc(Br)c(Cl)cc2c1=O | 9.9 °C | 32% |  |  |
| C[C@@H](O)[C@H](N)C(=O)NC/C=C/Cn1cnc2cc(Br)c(Cl)cc2c1=O | 22.5 °C | 99% | 5.49 | MIC (Staphylococcus aureus [5]): 32 mg/L (≈ 74.5 µM); MIC (Staphylococcus aureus [6]): 64 mg/L (≈ 149 µM); MIC (Enterococcus faecalis): 64 mg/L (≈ 149 µM); MIC (Escherichia coli): 32 mg/L (≈ 74.5 µM); MIC (Salmonella enterica [4]): 16 mg/L (≈ 37.2 µM); MIC (Pseudomonas aeruginosa): 32 mg/L (≈ 74.5 µM) |
| C[C@@H](O)[C@H](N)C(=O)NCCCCCn1cnc2cc(Br)c(Cl)cc2c1=O | 14 °C | 87% | 4.53 |  |
| C[C@@H](O)[C@H](N)C(=O)NCCCCCCn1cnc2cc(Br)c(Cl)cc2c1=O | 12.4 °C | 96% | 5.14 |  |
| C[C@@H](O)[C@H](N)C(=O)NC/C=C/Cn1cnc2cc(F)c(F)cc2c1=O | 17.2 °C | 77% | 4.40 |  |
| C[C@@H](O)[C@H](N)C(=O)NC/C=C/Cn1cnc2cc(Cl)ncc2c1=O | 8.6 °C | 34% |  |  |
| C[C@@H](O)[C@H](N)C(=O)NC/C=C/Cn1cnc2cc3c(cc2c1=O)OCCO3 | 0.6 °C | 0% |  |  |
| Cc1cc2ncn(C/C=C/CNC(=O)[C@@H](N)[C@@H](C)O)c(=O)c2cc1C | 10.6 °C | 7% |  |  |
| C[C@@H](O)[C@H](N)C(=O)NC/C=C/Cn1cnc2cc3c(cc2c1=O)OCO3 | 9.5 °C | 5% |  |  |
| C[C@@H](O)[C@H](N)C(=O)NC/C=C/Cn1cnc2cc(Cl)c(F)cc2c1=O | 18.8 °C | 93% | 5.01 |  |
| C[C@@H](O)[C@H](N)C(=O)OCCCCn1cnc2cc(Br)c(Cl)cc2c1=O | 10.2 °C | 42% |  |  |
| C[C@@H](O)[C@H](N)C(=O)NC/C=C/Cn1cnc2cnc(Cl)cc2c1=O | 14.9 °C | 68% | 4.30 |  |
| COc1cc2ncn(C/C=C/CNC(=O)[C@@H](N)[C@@H](C)O)c(=O)c2cc1OC | 1.5 °C | 0% |  |  |
| O=C(CC1NCCCC1O)Cn1cnc2cc(Br)c(Cl)cc2c1=O (stereo unspecified) [HALOFUGINONE] | -1.4 °C | 5% |  | MIC (Staphylococcus aureus [5]): 64 mg/L (≈ 154 µM); MIC (Staphylococcus aureus [6]): 64 mg/L (≈ 154 µM); MIC (Enterococcus faecalis): 128 mg/L (≈ 309 µM); MIC (Escherichia coli): 64 mg/L (≈ 154 µM); MIC (Salmonella enterica [4]): 64 mg/L (≈ 154 µM); MIC (Pseudomonas aeruginosa): 64 mg/L (≈ 154 µM) |
| C[C@@H](O)[C@H](N)C(=O)NC/C=C/Cn1cnc2cc(Cl)c(Cl)cc2c1=O | 23.7 °C | 101% | 5.85 | pKd [7]: 5.87; MIC (Staphylococcus aureus [5]): 32 mg/L (≈ 83.1 µM); MIC (Staphylococcus aureus [6]): 32 mg/L (≈ 83.1 µM); MIC (Enterococcus faecalis): 32 mg/L (≈ 83.1 µM); MIC (Escherichia coli): 16 mg/L (≈ 41.5 µM); MIC (Salmonella enterica [4]): 16 mg/L (≈ 41.5 µM); MIC (Pseudomonas aeruginosa): 32 mg/L (≈ 83.1 µM) |
| C[C@@H](O)[C@H](N)C(=O)NC/C=C/Cn1cnc2cc(Cl)c([N+](=O)[O-])cc2c1=O | 0.5 °C | 0% |  |  |
| C[C@@H](O)[C@H](N)C(=O)NS(=O)(=O)c1cccc(-c2ccc3[nH]ncc3c2)c1 | 29.5 °C | 100% | 6.89 | MIC (Staphylococcus aureus [5]): > 256 mg/L; MIC (Staphylococcus aureus [6]): > 256 mg/L; MIC (Enterococcus faecalis): > 256 mg/L; MIC (Escherichia coli): > 256 mg/L; MIC (Salmonella enterica [4]): > 256 mg/L; MIC (Pseudomonas aeruginosa): > 256 mg/L |
| C[C@@H](O)[C@H](N)C(=O)OC/C=C/Cn1cnc2cc(Br)c(Cl)cc2c1=O | 15.7 °C | 96% | 5.02 |  |
| COc1cc2c(=O)n(C/C=C/CNC(=O)[C@@H](N)[C@@H](C)O)cnc2cn1 | 9.6 °C | 17% |  |  |
| C[C@@H](O)[C@H](N)C(=O)NC/C=C/Cn1cnc2cc3ccccc3cc2c1=O | 16.9 °C | 70% | 4.26 |  |
